The results in this text go back to patent US9994515B2, “Aryl naphthyl methanone oxime(s) and process for preparation thereof” (Council of Scientific & Industrial Research, priority 2013, dated 2018).

For assay [1], the system named is Kasumi 1. The assay can be described thus: Cytotoxicity in Kasumi 1 cells. The assay is classed as cell-based.
Assay [2] concerns DU-145. The assay can be described thus: MTT assay in DU-145 prostate tumor cells. The format is cell-based. The settings on record: Homo sapiens, DU-145, Table 6, 48 h, 10 point dose response. (Formazan colour is commonly taken as a measure of viable cells.)
Assay [3] concerns Vero. The assay can be described thus: Cytotoxicity in Vero kidney epithelial cells. The format is cell-based, monkey. The conditions noted are these: Primates, Vero; Table 2; normal cell line. On the procedure: (§1) To consider a molecule as a candidate compound in cancer drug therapy, the test compound must have specific cytotoxicity towards the cancer cells without affecting normal cell growth. Therefore, all active compounds were assessed for toxicity in non-cancer cell-lines: mouse fibroblast cell line (NIH3T3) and monkey kidney epithelial cells (Vero). […] Therefore, based on safety index ([…]), 5d [Centans; based on IUPAC name prefixed with Central Drug Research Institute's signature (Cent)] was selected as a lead compound.

The subject of assay [4] is MDA-MB231. The assay can be described thus: MTT assay in MDA-MB-231 breast tumor cells. The settings on record: Homo sapiens, MDA-MB-231, Table 6, 48 h, 10 point dose response. The format is cell-based.
For assay [5], the system named is U937. Put plainly: Cytotoxicity in U937 cells. The assay is classed as cell-based.
Assay [6] deals with HL60. The assay can be described thus: MTT cytotoxicity assay in HL-60 cells. The assay is classed as cell-based.
Assay [7] relates to K562. Put plainly: MTT cytotoxicity assay in K562 cells. The assay is classed as cell-based.
Assay [8] concerns Ishikawa. The assay can be described thus: MTT assay in Ishikawa endometrial adenocarcinoma cells. The format is cell-based. The settings on record: Homo sapiens, Ishikawa, Table 6, 48 h, 10 point dose response.
Assay [9] concerns NIH3T3. Put plainly: MTT cytotoxicity assay in NIH3T3 fibroblasts. The format is cell-based, mouse. The method, then: as §1
Assay [10] relates to MCF-7. The assay can be described thus: MTT assay in MCF-7 breast tumor cells. The format is cell-based. The conditions noted are these: Homo sapiens, MCF7, Table 6, 48 h, 10 point dose response.
Assay [11] relates to CD133+ DLD1 colon cancer cells. Put plainly: CD133+ colon cancer stem cell population by flow cytometry. The format is cell-based. The conditions noted are these: 20 uM, 24 h, vehicle 15.30%. The method, then: FIG. 9. Centans reduces CD133+ colon cancer stem cells with a higher efficacy than salinomycin. DLD1 colon cancer cells were treated with indicated compounds for 24h following which the CD133+ population was assessed by flow cytometry using CD133 antibody or relevant isotype control antibody (BD biosciences) in a Becton Dickinson FACS Calibur. Numbers in the dot plot represent % CD133+ cells.

Assay [12] concerns Colo205. Put plainly: Sulphorhodamine B assay in Colo205 colon cancer cells. The format is cell-based. The settings on record: Homo sapiens, COLO 205; SRB assay.
Assay [13] has as its system HCT116. The assay can be described thus: Sulphorhodamine B assay in HCT116 colon cancer cells. The conditions noted are these: Homo sapiens, HCT-116; SRB assay. The assay is classed as cell-based.
In assay [14] the test system is DLD1. The assay can be described thus: Sulphorhodamine B assay in DLD1 colon cancer cells. The settings on record: Homo sapiens, DLD-1; SRB assay. The format is cell-based.
Assay [15] relates to SW620. Put plainly: Sulphorhodamine B assay in SW620 colon cancer cells. The assay is classed as cell-based. The settings on record: Homo sapiens, SW-620; SRB assay. For orientation: The SRB assay estimates cell density from bound dye.
In assay [16] the test system is PBMCs isolated from healthy individuals. Put plainly: MTT cytotoxicity in PBMCs from healthy controls. The settings on record: 1 μM, 48 h; for % cell death, Average: healthy control, average of C1-C3.
Setting [17] is: Homo sapiens, Kasumi 1, Table 2.
Setting [18] is: Homo sapiens, HL-60, 48 h, Table 1, MTT assay after 48 h treatment.
The mark [19] stands for this setting: Homo sapiens, K562, 48 h, Table 1, MTT assay after 48 h treatment.
Setting [20] is: Mus musculus, NIH3T3, 48 h, Table 1, MTT assay after 48 h treatment.
The mark [21] stands for this setting: Mus musculus, NIH3T3, Table 2, normal cell line.
Setting [22] is: Table 1, MTT assay after 48 h treatment, fumarate.

Structures can show the parent of a compound that is named as a salt. Where two headings read alike, the source gives them in different places.

On to `CSc1ccc(/C(=N/OCCN2CCCCC2)c2cccc3ccccc23)cc1` [Compound 5a, (4-(methylthio)phenyl)(naphthalen-1-yl)methanone O-2-(piperidin-1-yl)ethyl oxime oxalate], for which the IC50 was 27 µM in assay [1] (setting [17]); 10 µM in [2]; greater than 25 µM in assay [3]; 8.8 µM in assay [4]; greater than 18 µM in assay [5] (Homo sapiens, U-937, Table 2); greater than 20 µM in assay [6] (setting [18]). The IC50 in assay [6] (Homo sapiens, HL-60, Table 2) is greater than 20 µM; in assay [7] (setting [19]), 5.8 µM; in [7] (Homo sapiens, K562, Table 2), 5.8 µM; in assay [8] it was 10 µM; in assay [9] (setting [20]) it was 15 µM; in assay [9] (setting [21]), 15 µM. This compound also yielded an IC50 in assay [10] of 13.5 µM.

For the compound `CC[C@@H](C(=O)[C@@H](C)[C@@H](O)[C@H](C)[C@@H]1O[C@@H]([C@@H](CC)C(=O)O)CC[C@@H]1C)[C@H]1O[C@]2(C=C[C@@H](O)[C@]3(CC[C@@](C)([C@H]4CC[C@](O)(CC)[C@H](C)O4)O3)O2)[C@H](C)C[C@@H]1C` [salinomycin], the “CD133+ population after treatment (minus isotype control)” value in assay [11] was 5.42%.

Regarding `O=c1[nH]cc(F)c(=O)[nH]1` [Compound 5-FU, 5-fluoro uracil, reference compound], the “CD133+ population after treatment (minus isotype control)” value in assay [11] is reported as “no effect”. The IC50 was 38.1 µM in assay [12], greater than 50 µM in assay [13], 16.4 µM in assay [14] and greater than 50 µM in assay [15].

As for `CSc1ccc(/C(=N/OCCCN(C)C)c2cccc3ccccc23)cc1` [Compound 5m, (4-(methylthio)phenyl)(naphthalen-1-yl)methanone O-3-(dimethylamino)propyl oxime oxalate], the IC50 in assay [1] (setting [17]) was greater than 10 µM; in assay [2], 9.5 µM; in assay [3], greater than 25 µM; in [4] it was 7.2 µM; in [5] (Homo sapiens, U-937, Table 2), greater than 15 µM; in assay [6] (setting [18]), 7.78 µM. Besides, the IC50 in assay [6] (Homo sapiens, HL-60, Table 2) is 7.78 µM; in assay [7] (setting [19]) it was 4.8 µM; in assay [7] (Homo sapiens, K562, Table 2) it was 4.8 µM; in assay [8], 7 µM; in [9] (setting [20]) it was greater than 25 µM; in assay [9] (setting [21]) it was greater than 25 µM. In [10], this compound returned an IC50 of 8 µM.

In the case of `Cc1nc(Nc2ncc(C(=O)Nc3c(C)cccc3Cl)s2)cc(N2CCN(CCO)CC2)n1` [Dasatinib], the entries for the “% cell death” value in assay [16] (healthy control sample C1), in [16] (healthy control sample C2) and in assay [16] (healthy control sample C3) were 2.39%, 12.03% and 18.93%, respectively. The “% cell death, Average” value in assay [16] was 11.12%. Also, the IC50 in [6] (Homo sapiens, HL-60, 48 h, Table 3, MTT, 48 h, 10 point dose response, read-out: IC 50 HL 60) was found to be 6.85 µM; in assay [7] (Homo sapiens, K562, 48 h, Table 3, MTT, 48 h, 10 point dose response, read-out: IC 50 K562), 6.8 µM.

With `Cc1ccc(NC(=O)c2ccc(CN3CCN(C)CC3)cc2)cc1Nc1nccc(-c2cccnc2)n1` [Imatinib], the “% cell death” value in assay [16] (healthy control sample C1) is reported as 10.51%. The “% cell death, Average” value in assay [16] was 16.12%.

Regarding `CCN(CC)CCO/N=C(/c1ccc(SC)cc1)c1cccc2ccccc12` [Compound 5j, (4-(methylthio)phenyl)(naphthalen-1-yl)methanone O-2-(diethylamino)ethyl oxime fumarate], the IC50 in assay [1] (Table 2, fumarate) is 20 µM; in assay [5] (Table 2, fumarate), greater than 24 µM; in [6] (setting [22]), 10 µM; in assay [6] (Table 2, fumarate) it was 10 µM; in [7] (setting [22]) it was 8.5 µM; in assay [7] (Table 2, fumarate), 8.5 µM. Further, the IC50 in [9] (setting [22]) came to 25 µM; in [9] (Table 2, normal cell line, fumarate), 25 µM.

Turning to `CSc1ccc(/C(=N/OCCCN2CCC(C)CC2)c2cccc3ccccc23)cc1` [Compound 7c, (4-(methylthio)phenyl)(naphthalen-1-yl)methanone O-3-(4-methylpiperidin-1-yl)propyl oxime oxalate], the IC50 in assay [1] (setting [17]) is 19 µM; in [2], 10 µM; in [3], greater than 25 µM; in assay [4], 20 µM; in [5] (Homo sapiens, U-937, Table 2), greater than 25 µM; in assay [6] (setting [18]), greater than 50 µM. In addition, the IC50 was greater than 50 µM in assay [6] (Homo sapiens, HL-60, Table 2); 5.73 µM in [7] (setting [19]); 5.73 µM in assay [7] (Homo sapiens, K562, Table 2); greater than 50 µM in assay [8]; 21 µM in assay [9] (setting [20]); 21 µM in [9] (setting [21]). In assay [10], this compound registered an IC50 of 6.5 µM.
